{
  "source": "paper PMC12090182",
  "about": "“Repurposing of the RIPK1-Selective Benzo[1,4]oxazepin-4-one Scaffold for the Development of a Type III LIMK1/2 Inhibitor” (ACS Chemical Biology, 2025)",
  "assay_in_all_cases": "scanMAX KINOMEscan (Eurofins)",
  "type_in_all_cases": "binding",
  "key": {"PLK3": {"molecular_target": "PLK3 (Homo sapiens, UniProt Q9H4B4)", "conditions": "compound concentration 100 nM; Entrez PLK3; read-out: Percent Control", "excerpt": "(§1) Supplement cb5c00097_si_002.xlsx, sheet \"Table S6 (Eurofins Selectivity)\" | column: Percent Control"}, "IKK-beta": {"molecular_target": "IKK-beta (Homo sapiens, UniProt O14920)", "sequence (O14920 whole entry)": "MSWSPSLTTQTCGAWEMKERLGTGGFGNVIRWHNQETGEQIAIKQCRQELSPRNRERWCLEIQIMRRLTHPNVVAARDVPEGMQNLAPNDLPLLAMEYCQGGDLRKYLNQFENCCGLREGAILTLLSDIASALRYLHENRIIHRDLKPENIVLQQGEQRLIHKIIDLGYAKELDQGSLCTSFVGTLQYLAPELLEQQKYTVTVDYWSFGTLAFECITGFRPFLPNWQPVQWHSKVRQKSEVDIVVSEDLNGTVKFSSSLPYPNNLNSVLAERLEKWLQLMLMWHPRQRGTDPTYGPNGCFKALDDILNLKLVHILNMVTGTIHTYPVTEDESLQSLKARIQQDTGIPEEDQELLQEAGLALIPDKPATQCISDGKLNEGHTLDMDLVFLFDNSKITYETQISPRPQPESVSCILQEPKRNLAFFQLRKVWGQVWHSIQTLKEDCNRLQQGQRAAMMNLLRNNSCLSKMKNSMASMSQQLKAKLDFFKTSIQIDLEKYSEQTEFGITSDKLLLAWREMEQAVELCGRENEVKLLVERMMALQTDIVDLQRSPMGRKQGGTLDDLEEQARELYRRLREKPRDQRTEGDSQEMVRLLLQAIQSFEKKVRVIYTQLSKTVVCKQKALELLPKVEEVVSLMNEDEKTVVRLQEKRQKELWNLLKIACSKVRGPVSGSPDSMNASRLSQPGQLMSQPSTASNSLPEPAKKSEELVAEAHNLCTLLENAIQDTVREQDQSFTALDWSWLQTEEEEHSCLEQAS", "conditions": "read-out: Percent Control", "excerpt": "as §1"}, "SBK1": {"molecular_target": "SBK1 (Homo sapiens, UniProt Q52WX2)", "sequence (Q52WX2 whole entry)": "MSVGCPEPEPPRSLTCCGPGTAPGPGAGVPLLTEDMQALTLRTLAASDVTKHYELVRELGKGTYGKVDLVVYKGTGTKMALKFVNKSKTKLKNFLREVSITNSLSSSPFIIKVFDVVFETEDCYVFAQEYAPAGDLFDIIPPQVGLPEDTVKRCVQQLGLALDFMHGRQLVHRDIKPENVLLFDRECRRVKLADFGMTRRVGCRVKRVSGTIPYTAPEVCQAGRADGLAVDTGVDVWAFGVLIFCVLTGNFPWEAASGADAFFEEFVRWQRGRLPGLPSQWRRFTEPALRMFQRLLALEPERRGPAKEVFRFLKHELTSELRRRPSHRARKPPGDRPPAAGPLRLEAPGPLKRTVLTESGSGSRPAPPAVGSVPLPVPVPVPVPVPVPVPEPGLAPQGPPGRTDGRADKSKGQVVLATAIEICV", "conditions": "compound concentration 100 nM; Entrez SBK1; read-out: Percent Control", "excerpt": "as §1"}, "MEK5": {"molecular_target": "MEK5 (Homo sapiens, UniProt Q13163)", "conditions": "1000 nM, read-out: Percent Control", "excerpt": "as §1"}, "[1]": {"molecular_target": "RSK4(Kin.Dom.1-N-terminal) (Homo sapiens, UniProt Q9UK32)", "conditions": "compound concentration 100 nM; Entrez RPS6KA6; read-out: Percent Control", "excerpt": "as §1"}, "ABL1-phosphorylated": {"molecular_target": "ABL1-phosphorylated (Homo sapiens, UniProt P00519)", "sequence (P00519 whole entry)": "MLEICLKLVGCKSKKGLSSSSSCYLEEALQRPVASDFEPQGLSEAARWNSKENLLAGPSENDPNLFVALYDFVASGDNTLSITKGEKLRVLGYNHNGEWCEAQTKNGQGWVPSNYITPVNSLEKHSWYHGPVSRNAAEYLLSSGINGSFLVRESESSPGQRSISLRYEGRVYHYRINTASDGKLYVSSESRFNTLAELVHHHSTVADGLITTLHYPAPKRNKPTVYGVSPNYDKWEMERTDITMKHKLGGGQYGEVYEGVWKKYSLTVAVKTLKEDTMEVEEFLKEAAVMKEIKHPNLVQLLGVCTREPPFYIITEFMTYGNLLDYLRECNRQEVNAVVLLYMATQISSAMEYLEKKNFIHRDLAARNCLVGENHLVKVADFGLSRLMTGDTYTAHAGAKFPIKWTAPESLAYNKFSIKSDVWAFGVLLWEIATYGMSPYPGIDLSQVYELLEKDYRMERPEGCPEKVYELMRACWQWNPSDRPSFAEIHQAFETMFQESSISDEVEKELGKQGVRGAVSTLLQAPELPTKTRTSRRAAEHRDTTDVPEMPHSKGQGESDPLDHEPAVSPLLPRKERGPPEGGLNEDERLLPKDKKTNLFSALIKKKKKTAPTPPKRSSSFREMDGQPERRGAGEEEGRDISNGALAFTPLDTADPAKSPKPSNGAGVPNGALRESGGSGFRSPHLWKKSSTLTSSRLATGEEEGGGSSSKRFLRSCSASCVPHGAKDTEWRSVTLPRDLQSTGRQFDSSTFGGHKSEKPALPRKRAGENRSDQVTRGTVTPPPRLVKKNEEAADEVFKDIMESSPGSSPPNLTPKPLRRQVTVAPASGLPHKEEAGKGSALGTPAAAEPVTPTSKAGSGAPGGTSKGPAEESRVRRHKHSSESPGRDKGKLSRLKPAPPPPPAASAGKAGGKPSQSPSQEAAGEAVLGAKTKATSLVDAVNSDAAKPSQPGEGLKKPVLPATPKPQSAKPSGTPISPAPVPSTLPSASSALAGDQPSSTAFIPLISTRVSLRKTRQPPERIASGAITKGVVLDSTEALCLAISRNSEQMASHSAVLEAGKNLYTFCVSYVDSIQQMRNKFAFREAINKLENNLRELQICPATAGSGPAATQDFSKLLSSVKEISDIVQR", "conditions": "read-out: Percent Control", "excerpt": "as §1"}, "FGFR2": {"molecular_target": "FGFR2 (Homo sapiens, UniProt P21802)", "sequence (P21802 22-821)": "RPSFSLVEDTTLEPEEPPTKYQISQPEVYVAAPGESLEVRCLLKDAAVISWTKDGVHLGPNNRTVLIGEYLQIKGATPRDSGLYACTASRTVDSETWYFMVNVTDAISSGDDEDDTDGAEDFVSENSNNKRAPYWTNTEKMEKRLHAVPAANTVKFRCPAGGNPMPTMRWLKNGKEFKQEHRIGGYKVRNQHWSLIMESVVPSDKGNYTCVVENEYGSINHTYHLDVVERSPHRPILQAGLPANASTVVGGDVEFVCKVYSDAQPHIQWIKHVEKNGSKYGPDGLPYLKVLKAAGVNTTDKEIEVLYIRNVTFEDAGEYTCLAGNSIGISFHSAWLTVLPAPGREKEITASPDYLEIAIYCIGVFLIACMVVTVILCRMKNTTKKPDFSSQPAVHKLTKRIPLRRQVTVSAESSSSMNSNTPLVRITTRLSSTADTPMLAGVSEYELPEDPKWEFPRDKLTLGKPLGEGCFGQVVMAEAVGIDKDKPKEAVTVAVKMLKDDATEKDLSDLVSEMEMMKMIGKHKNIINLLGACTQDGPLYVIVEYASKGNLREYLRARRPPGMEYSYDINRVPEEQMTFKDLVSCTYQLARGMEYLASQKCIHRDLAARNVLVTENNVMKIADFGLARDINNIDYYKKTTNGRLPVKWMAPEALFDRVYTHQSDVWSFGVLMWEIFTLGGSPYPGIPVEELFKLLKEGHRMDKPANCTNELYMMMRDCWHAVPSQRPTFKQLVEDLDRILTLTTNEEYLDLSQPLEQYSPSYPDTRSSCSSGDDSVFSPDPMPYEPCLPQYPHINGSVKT", "conditions": "read-out: Percent Control", "excerpt": "as §1"}, "ERK4": {"molecular_target": "ERK4 (Homo sapiens, UniProt P31152)", "conditions": "1000 nM, read-out: Percent Control", "excerpt": "as §1"}, "WNK1": {"molecular_target": "WNK1 (Homo sapiens, UniProt Q9H4A3)", "conditions": "compound concentration 100 nM; Entrez WNK1; read-out: Percent Control", "excerpt": "as §1"}, "NLK": {"molecular_target": "NLK (Homo sapiens, UniProt Q9UBE8)", "conditions": "1000 nM, read-out: Percent Control", "excerpt": "as §1"}, "PYK2": {"molecular_target": "PYK2 (Homo sapiens, UniProt Q14289)", "conditions": "1000 nM, read-out: Percent Control", "excerpt": "as §1"}, "EPHB4": {"molecular_target": "EPHB4 (Homo sapiens, UniProt P54760)", "conditions": "1000 nM, read-out: Percent Control", "excerpt": "as §1"}, "MEK4": {"molecular_target": "MEK4 (Homo sapiens, UniProt P45985)", "conditions": "compound concentration 100 nM; Entrez MAP2K4; read-out: Percent Control", "excerpt": "as §1"}, "OSR1": {"molecular_target": "OSR1 (Homo sapiens, UniProt O95747)", "conditions": "1000 nM, read-out: Percent Control", "excerpt": "as §1"}, "SGK": {"molecular_target": "SGK (Homo sapiens, UniProt O00141)", "conditions": "compound concentration 100 nM; Entrez SGK1; read-out: Percent Control", "excerpt": "as §1"}, "TAOK1": {"molecular_target": "TAOK1 (Homo sapiens, UniProt Q7L7X3)", "conditions": "compound concentration 100 nM; Entrez TAOK1; read-out: Percent Control", "excerpt": "as §1"}, "FYN": {"molecular_target": "FYN (Homo sapiens, UniProt P06241)", "conditions": "1000 nM, read-out: Percent Control", "excerpt": "as §1"}, "PRKD3": {"molecular_target": "PRKD3 (Homo sapiens, UniProt O94806)", "conditions": "1000 nM, read-out: Percent Control", "excerpt": "as §1"}, "NEK7": {"molecular_target": "NEK7 (Homo sapiens, UniProt Q8TDX7)", "conditions": "1000 nM, read-out: Percent Control", "excerpt": "as §1"}, "CIT": {"molecular_target": "CIT (Homo sapiens, UniProt O14578)", "conditions": "1000 nM, read-out: Percent Control", "excerpt": "as §1"}, "PCTK3": {"molecular_target": "PCTK3 (Homo sapiens, UniProt Q07002)", "sequence (Q07002 whole entry)": "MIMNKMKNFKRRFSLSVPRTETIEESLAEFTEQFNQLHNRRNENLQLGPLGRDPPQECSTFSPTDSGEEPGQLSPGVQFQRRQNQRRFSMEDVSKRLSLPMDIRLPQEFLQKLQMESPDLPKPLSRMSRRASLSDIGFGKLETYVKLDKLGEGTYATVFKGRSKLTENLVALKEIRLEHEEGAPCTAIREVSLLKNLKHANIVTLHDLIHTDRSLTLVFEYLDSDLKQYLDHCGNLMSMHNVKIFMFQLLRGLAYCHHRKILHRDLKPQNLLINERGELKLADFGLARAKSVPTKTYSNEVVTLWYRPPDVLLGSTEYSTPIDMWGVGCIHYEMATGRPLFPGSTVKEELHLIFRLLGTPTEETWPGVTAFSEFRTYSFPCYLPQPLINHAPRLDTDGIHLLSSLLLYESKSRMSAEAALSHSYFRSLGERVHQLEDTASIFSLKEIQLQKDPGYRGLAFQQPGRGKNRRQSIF", "conditions": "1000 nM, read-out: Percent Control", "excerpt": "as §1"}, "STK33": {"molecular_target": "STK33 (Homo sapiens, UniProt Q9BYT3)", "conditions": "compound concentration 100 nM; Entrez STK33; read-out: Percent Control", "excerpt": "as §1"}, "ERK1": {"molecular_target": "ERK1 (Homo sapiens, UniProt P27361)", "sequence (P27361 whole entry)": "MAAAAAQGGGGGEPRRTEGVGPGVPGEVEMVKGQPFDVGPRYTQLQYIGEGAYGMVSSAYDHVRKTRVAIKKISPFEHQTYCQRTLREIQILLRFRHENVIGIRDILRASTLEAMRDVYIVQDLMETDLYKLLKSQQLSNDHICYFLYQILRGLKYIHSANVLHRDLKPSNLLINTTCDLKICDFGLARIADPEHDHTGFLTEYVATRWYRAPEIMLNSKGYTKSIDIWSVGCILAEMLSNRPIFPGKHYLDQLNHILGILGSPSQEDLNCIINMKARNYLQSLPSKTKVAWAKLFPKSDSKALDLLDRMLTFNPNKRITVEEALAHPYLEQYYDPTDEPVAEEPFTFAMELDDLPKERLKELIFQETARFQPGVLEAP", "conditions": "read-out: Percent Control", "excerpt": "as §1"}, "NEK9": {"molecular_target": "NEK9 (Homo sapiens, UniProt Q8TD19)", "conditions": "1000 nM, read-out: Percent Control", "excerpt": "as §1"}, "[2]": {"molecular_target": "RPS6KA5(Kin.Dom.2-C-terminal) (Homo sapiens, UniProt O75582)", "conditions": "compound concentration 100 nM; Entrez RPS6KA5; read-out: Percent Control", "excerpt": "as §1"}, "[3]": {"molecular_target": "RSK4(Kin.Dom.2-C-terminal) (Homo sapiens, UniProt Q9UK32)", "conditions": "1000 nM, read-out: Percent Control", "excerpt": "as §1"}, "PRKCD": {"molecular_target": "PRKCD (Homo sapiens, UniProt Q05655)", "sequence (Q05655 whole entry)": "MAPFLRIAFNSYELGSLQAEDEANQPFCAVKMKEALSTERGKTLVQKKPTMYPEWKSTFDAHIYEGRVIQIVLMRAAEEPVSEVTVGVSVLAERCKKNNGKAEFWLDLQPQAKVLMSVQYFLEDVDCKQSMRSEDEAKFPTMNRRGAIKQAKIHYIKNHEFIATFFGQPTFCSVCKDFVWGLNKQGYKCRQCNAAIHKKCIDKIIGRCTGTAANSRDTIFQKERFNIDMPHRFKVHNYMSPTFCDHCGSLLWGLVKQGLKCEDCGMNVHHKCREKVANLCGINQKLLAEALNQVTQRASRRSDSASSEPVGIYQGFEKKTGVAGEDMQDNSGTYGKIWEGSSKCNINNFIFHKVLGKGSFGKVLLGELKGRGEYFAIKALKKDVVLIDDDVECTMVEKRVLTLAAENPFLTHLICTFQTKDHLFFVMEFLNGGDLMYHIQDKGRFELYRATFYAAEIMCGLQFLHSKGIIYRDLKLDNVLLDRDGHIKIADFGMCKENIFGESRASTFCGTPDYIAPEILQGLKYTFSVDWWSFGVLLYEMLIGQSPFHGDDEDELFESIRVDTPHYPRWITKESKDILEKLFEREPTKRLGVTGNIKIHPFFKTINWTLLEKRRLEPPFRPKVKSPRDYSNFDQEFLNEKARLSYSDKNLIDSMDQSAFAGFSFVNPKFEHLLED", "conditions": "compound concentration 100 nM; Entrez PRKCD; read-out: Percent Control", "excerpt": "as §1"}, "PIM3": {"molecular_target": "PIM3 (Homo sapiens, UniProt Q86V86)", "conditions": "1000 nM, read-out: Percent Control", "excerpt": "as §1"}, "PFPK5(P.falciparum)": {"molecular_target": "PFPK5(P.falciparum) (Plasmodium falciparum, UniProt P61075)", "conditions": "1000 nM, read-out: Percent Control", "excerpt": "as §1"}, "MTOR": {"molecular_target": "MTOR (Homo sapiens, UniProt P42345)", "conditions": "compound concentration 100 nM; Entrez MTOR; read-out: Percent Control", "excerpt": "as §1"}, "PRKD2": {"molecular_target": "PRKD2 (Homo sapiens, UniProt Q9BZL6)", "conditions": "1000 nM, read-out: Percent Control", "excerpt": "as §1"}, "INSRR": {"molecular_target": "INSRR (Homo sapiens, UniProt P14616)", "conditions": "1000 nM, read-out: Percent Control", "excerpt": "as §1"}, "AURKB": {"molecular_target": "AURKB (Homo sapiens, UniProt Q96GD4)", "sequence (Q96GD4 whole entry)": "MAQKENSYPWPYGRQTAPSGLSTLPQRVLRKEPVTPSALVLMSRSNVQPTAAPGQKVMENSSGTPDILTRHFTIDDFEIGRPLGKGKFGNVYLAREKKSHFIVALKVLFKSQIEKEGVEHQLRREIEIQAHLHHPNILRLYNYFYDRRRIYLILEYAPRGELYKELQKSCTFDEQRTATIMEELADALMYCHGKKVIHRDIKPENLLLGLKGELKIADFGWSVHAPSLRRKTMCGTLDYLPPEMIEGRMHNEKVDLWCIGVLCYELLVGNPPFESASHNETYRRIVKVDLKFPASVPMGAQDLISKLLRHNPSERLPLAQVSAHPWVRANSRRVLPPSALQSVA", "conditions": "read-out: Percent Control", "excerpt": "as §1"}, "[4]": {"molecular_target": "RSK1(Kin.Dom.2-C-terminal) (Homo sapiens, UniProt Q15418)", "conditions": "compound concentration 100 nM; Entrez RPS6KA1; read-out: Percent Control", "excerpt": "as §1"}, "PCTK2": {"molecular_target": "PCTK2 (Homo sapiens, UniProt Q00537)", "conditions": "1000 nM, read-out: Percent Control", "excerpt": "as §1"}},
  "data": [
    {"smiles": "CN1C(=O)[C@@H](N2CCc3c(nn(Cc4ccccc4)c3C(N)=O)C2=O)COc2cc(Cl)ccc21", "note": "[Compound 10, (S)-2-benzyl-6-(8-chloro-5-methyl-4-oxo-2,3,4,5-tetrahydrobenzo[b][1,4]oxazepin-3-yl)-7-oxo-4,5,6,7-tetrahydro-2H-pyrazolo[3,4-c]pyridine-3-carboxamide]", "values": [
      {"measurement": "remaining binding at 0.1 µM", "setting": "PLK3", "result": 86, "unit": "%"},
      {"measurement": "remaining binding at 1 µM", "setting": "IKK-beta; 1000 nM", "result": 100, "unit": "%"},
      {"measurement": "remaining binding at 0.1 µM", "setting": "IKK-beta; compound concentration 100 nM, Entrez IKBKB", "result": 97, "unit": "%"},
      {"measurement": "remaining binding at 0.1 µM", "setting": "SBK1", "result": 68, "unit": "%"},
      {"measurement": "remaining binding at 1 µM", "setting": "MEK5", "result": 82, "unit": "%"},
      {"measurement": "remaining binding at 0.1 µM", "setting": "[1]", "result": 100, "unit": "%"},
      {"measurement": "remaining binding at 1 µM", "setting": "ABL1-phosphorylated; 1000 nM", "result": 100, "unit": "%"},
      {"measurement": "remaining binding at 0.1 µM", "setting": "ABL1-phosphorylated; compound concentration 100 nM, Entrez ABL1", "result": 97, "unit": "%"},
      {"measurement": "remaining binding at 1 µM", "setting": "FGFR2; 1000 nM", "result": 100, "unit": "%"},
      {"measurement": "remaining binding at 0.1 µM", "setting": "FGFR2; compound concentration 100 nM, Entrez FGFR2", "result": 100, "unit": "%"},
      {"measurement": "remaining binding at 1 µM", "setting": "ERK4", "result": 92, "unit": "%"},
      {"measurement": "remaining binding at 0.1 µM", "setting": "WNK1", "result": 92, "unit": "%"},
      {"measurement": "remaining binding at 1 µM", "setting": "NLK", "result": 98, "unit": "%"},
      {"measurement": "remaining binding at 1 µM", "setting": "PYK2", "result": 82, "unit": "%"},
      {"measurement": "remaining binding at 1 µM", "setting": "EPHB4", "result": 94, "unit": "%"},
      {"measurement": "remaining binding at 0.1 µM", "setting": "MEK4", "result": 100, "unit": "%"},
      {"measurement": "remaining binding at 1 µM", "setting": "OSR1", "result": 74, "unit": "%"},
      {"measurement": "remaining binding at 0.1 µM", "setting": "SGK", "result": 98, "unit": "%"},
      {"measurement": "remaining binding at 0.1 µM", "setting": "TAOK1", "result": 100, "unit": "%"},
      {"measurement": "remaining binding at 1 µM", "setting": "FYN", "result": 77, "unit": "%"},
      {"measurement": "remaining binding at 1 µM", "setting": "PRKD3", "result": 92, "unit": "%"},
      {"measurement": "remaining binding at 1 µM", "setting": "NEK7", "result": 93, "unit": "%"},
      {"measurement": "remaining binding at 1 µM", "setting": "CIT", "result": 79, "unit": "%"},
      {"measurement": "remaining binding at 1 µM", "setting": "PCTK3", "result": 88, "unit": "%"},
      {"measurement": "remaining binding at 0.1 µM", "setting": "STK33", "result": 80, "unit": "%"},
      {"measurement": "remaining binding at 1 µM", "setting": "ERK1; 1000 nM", "result": 100, "unit": "%"},
      {"measurement": "remaining binding at 0.1 µM", "setting": "ERK1; compound concentration 100 nM, Entrez MAPK3", "result": 93, "unit": "%"},
      {"measurement": "remaining binding at 1 µM", "setting": "NEK9", "result": 92, "unit": "%"},
      {"measurement": "remaining binding at 0.1 µM", "setting": "[2]", "result": 95, "unit": "%"},
      {"measurement": "remaining binding at 1 µM", "setting": "[3]", "result": 93, "unit": "%"},
      {"measurement": "remaining binding at 0.1 µM", "setting": "PRKCD", "result": 83, "unit": "%"},
      {"measurement": "remaining binding at 1 µM", "setting": "PIM3", "result": 65, "unit": "%"},
      {"measurement": "remaining binding at 1 µM", "setting": "PFPK5(P.falciparum)", "result": 66, "unit": "%"},
      {"measurement": "remaining binding at 0.1 µM", "setting": "MTOR", "result": 86, "unit": "%"},
      {"measurement": "remaining binding at 1 µM", "setting": "PRKD2", "result": 96, "unit": "%"},
      {"measurement": "remaining binding at 1 µM", "setting": "INSRR", "result": 76, "unit": "%"},
      {"measurement": "remaining binding at 1 µM", "setting": "AURKB; 1000 nM", "result": 100, "unit": "%"},
      {"measurement": "remaining binding at 0.1 µM", "setting": "AURKB; compound concentration 100 nM, Entrez AURKB", "result": 100, "unit": "%"},
      {"measurement": "remaining binding at 0.1 µM", "setting": "[4]", "result": 97, "unit": "%"},
      {"measurement": "remaining binding at 1 µM", "setting": "PCTK2", "result": 90, "unit": "%"}
    ]}
  ]
}
